Data on 31 molecules can be found in patent publication US12264156B2, “Compounds and pharmaceutical compositions thereof for the treatment of diseases” (GALAPAGOS NV, priority 2018, dated 2025).

The term EC50 denotes the concentration that produces a half-maximal response.

The structures appear in SMILES notation.

In this assay the test system is LPS-induced TNFα in monocyte-derived macrophages (MdM). Description: MdM assay: LPS-triggered TNFα (ELISA). Format: cell-based, human. The settings on record: Homo sapiens, Macrophage, 20 h, monocyte-derived macrophages, LPS 200 ng/mL, supernatant after 20 h; read-out: TNFα EC50. In short, it runs like this:
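Human monocyte-derived macrophages from CD14+ bead-selected buffy-coat PBMCs, used on day 10, pre-treated with compound for 1 h at 37 °C (0.2% DMSO), then stimulated with 200 ng/mL LPS. Supernatant taken after 20 h for TNFα sandwich ELISA (IL-10 at 2 h).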
(In an ELISA, binding on a coated surface is turned into a signal by an enzyme label.)

For `COc1cc(-c2cnc3cc(OCCCN(C)C)ccn23)cc(OC(F)F)c1C(=O)NC1CC1` [Cpd 13], the EC50 lay within 0.1 to 100 nM.

As to `COc1cc(-c2cnc3cc(OCC4CN(C)C4)ccn23)cc(OC(F)F)c1C(=O)NC1CC1` [Cpd 14, N-cyclopropyl-2-(difluoromethoxy)-6-methoxy-4-[7-[(1-methylazetidin-3-yl)methoxy]imidazo[1,2-a]pyridin-3-yl]benzamide], the EC50 lay in the range of 100 to 1000 nM.

As for `COc1cc(-c2cnc3cc(OCCN(C)C)ccn23)cc2c1C(=O)N(CC(F)(F)F)CC2` [Cpd 18, 6-[7-[2-(dimethylamino)ethoxy]imidazo[1,2-a]pyridin-3-yl]-8-methoxy-2-(2,2,2-trifluoroethyl)-3,4-dihydroisoquinolin-1-one], the EC50 lay within 100 to 1000 nM.

`COc1cc(-c2cnc3cc(OCCC4CCCN4C)ccn23)cc2c1C(=O)N(CC(F)(F)F)CC2` (stereo not shown) [Cpd 122, 8-methoxy-6-[7-[2-(1-methylpyrrolidin-2-yl)ethoxy]imidazo[1,2-a]pyridin-3-yl]-2-(2,2,2-trifluoroethyl)-3,4-dihydroisoquinolin-1-one]: the EC50 fell in the range of 100 to 1000 nM.

On to `CN(C)CCOc1ccn2c(-c3cc4c(c(OC(F)F)c3)C(=O)N(CC(F)F)CC4)cnc2c1` [Cpd 150, 2-(2,2-difluoroethyl)-8-(difluoromethoxy)-6-[7-[2-(dimethylamino)ethoxy]imidazo[1,2-a]pyridin-3-yl]-3,4-dihydroisoquinolin-1-one], for which the EC50 was 100 to 1000 nM.

`CNc1cc(-c2cnc3cc(OCCN(C)C)ccn23)cc(OC(F)F)c1C(=O)NCC(F)(F)F` [Cpd 165, 2-(difluoromethoxy)-4-[7-[2-(dimethylamino)ethoxy]imidazo[1,2-a]pyridin-3-yl]-6-(methylamino)-N-(2,2,2-trifluoroethyl)benzamide]: the EC50 is 100 to 1000 nM.

In the case of `COc1cc(-c2cnc3cc(OCCN4CCCCC4)ccn23)cc(OC(F)F)c1C(=O)NC1CC1` [compound 10, N-cyclopropyl-2-(difluoromethoxy)-6-methoxy-4-[7-[2-(1-piperidyl)ethoxy]imidazo [1,2-a]pyridin-3-yl]benzamide], the EC50 fell in the range of 0.1 to 100 nM.

`COc1cc(-c2cnc3cc(OCCC4CCCN4C)ccn23)cc(OC(F)F)c1C(=O)NC1CC1` (stereo not shown) [compound 17, N-cyclopropyl-2-(difluoromethoxy)-6-methoxy-4-[7-[2-(1-methylpyrrolidin-2-yl)ethoxy]imidazo[1,2-a]pyridin-3-yl]benzamide]: the EC50 was 0.1 to 100 nM.

With `COc1cc(-c2cnc3cc(OCC4CCCCN4C)ccn23)cc(OC(F)F)c1C(=O)NC1CC1` (stereo not shown) [compound 23, N-cyclopropyl-2-(difluoromethoxy)-6-methoxy-4-[7-[(1-methyl-2-piperidyl)methoxy]imidazo[1,2-a]pyridin-3-yl]benzamide], the EC50 was 100 to 1000 nM.

In the case of `CCNCCOc1ccn2c(-c3cc(OC)c(C(=O)NC4CC4)c(OC(F)F)c3)cnc2c1` [compound 37, N-cyclopropyl-2-(difluoromethoxy)-4-[7-[2-(ethylamino)ethoxy]imidazo[1,2-a]pyridin-3-yl]-6-methoxy-benzamide], the EC50 lay within 100 to 1000 nM.

Turning to `COc1cc(-c2cnc3cc(OCC4CN(C)C4)ccn23)cc2c1C(=O)N(CC(F)(F)F)CC2` [compound 39, 8-methoxy-6-[7-[(1-methylazetidin-3-yl)methoxy]imidazo[1,2-a]pyridin-3-yl]-2-(2,2,2-trifluoroethyl)-3,4-dihydro isoquinolin-1-one], the EC50 was in the range of 100 to 1000 nM.

For `COc1cc(-c2cnc3cc(OCCN4CCCCC4)ccn23)cc2c1C(=O)N(CC(F)(F)F)CC2` [compound 40, 8-methoxy-6-[7-[2-(1-piperidyl)ethoxy]imidazo [1,2-a]pyridin-3-yl]-2-(2,2,2-trifluoroethyl)-3,4-dihydroisoquinolin-1-one], the 50% effective concentration (EC50) lay within 100 to 1000 nM.

With `COc1cc(-c2cnc3cc(OCCN4CCS(=O)(=O)CC4)ccn23)cc2c1C(=O)N(CC(F)(F)F)CC2` [compound 41, 6-[7-[2-(1,1-dioxo-1,4-thiazinan-4-yl)ethoxy]imidazo[1,2-a]pyridin-3-yl]-8-methoxy-2-(2,2,2-trifluoroethyl)-3,4-dihydroisoquinolin-1-one], the EC50 fell in the range of 1000 to 5000 nM.

For the molecule `COc1cc(-c2cnc3cc(OCc4ccnn4C)ccn23)cc(OC(F)F)c1C(=O)NC1CC1` [compound 44, N-cyclopropyl-2-(difluoromethoxy)-6-methoxy-4-[7-[(2-methylpyrazol-3-yl)methoxy]imidazo[1,2-a]pyridin-3-yl] benzamide], the EC50 is 100 to 1000 nM.

Take `COc1cc(-c2cnc3cc(OC(C)C(F)(F)F)ccn23)cc(OC(F)F)c1C(=O)NC1CC1` (stereo not shown) [compound 45, N-cyclopropyl-2-(difluoromethoxy)-6-methoxy-4-[7-(2,2,2-trifluoro-1-methyl-ethoxy)imidazo[1,2-a]pyridin-3-yl]benzamide]: the EC50 is 100 to 1000 nM.

Turning to `COc1cc(-c2cnc3cc(OCCN(C)C)ccn23)cc2c1C(=O)N(CC(F)F)CC2` [compound 54, 2-(2,2-difluoroethyl)-6-[7-[2-(dimethylamino)ethoxy]imidazo [1,2-a]pyridin-3-yl]-8-methoxy-3,4-dihydro isoquinolin-1-one], the concentration for a half-maximal effect (EC50) lay within 100 to 1000 nM.

Consider `COc1cc(-c2cnc3cc(OC[C@H]4CCCN4C)ccn23)cc(OC(F)F)c1C(=O)NC1CC1` [compound 81, N-cyclopropyl-2-(difluoromethoxy)-6-methoxy-4-[7-[[(2R)-1-methylpyrrolidin-2-yl]methoxy]imidazo[1,2-a]pyridin-3-yl]benzamide], for which the half-maximal effective concentration (EC50) lay in the range of 100 to 1000 nM.

In the case of `CCN1CCCCC1COc1ccn2c(-c3cc(OC)c(C(=O)NC4CC4)c(OC(F)F)c3)cnc2c1` (stereo not shown) [compound 83, N-cyclopropyl-2-(difluoromethoxy)-4-[7-[(1-ethyl-2-piperidyl)methoxy]imidazo [1,2-a]pyridin-3-yl]-6-methoxy-benzamide], the EC50 was 100 to 1000 nM.

For the molecule `COc1cc(-c2cnc3cc(OCC(C)(C)N)ccn23)cc(OC(F)F)c1C(=O)NC1CC1` [compound 104, 4-[7-(2-amino-2-methyl-propoxy)imidazo[1,2-a]pyridin-3-yl]-N-cyclopropyl-2-(difluoromethoxy)-6-methoxy-benzamide], the EC50 lay in the range of 1000 to 5000 nM.

`CCN(CC)CCOc1ccn2c(-c3cc(OC)c(C(=O)NC4CC4)c(OC(F)F)c3)cnc2c1` [compound 107, N-cyclopropyl-4-[7-[2-(diethylamino)ethoxy]imidazo[1,2-a]pyridin-3-yl]-2-(difluoromethoxy)-6-methoxy-benzamide]: the half-maximal effective concentration (EC50) lay within 100 to 1000 nM.

For the molecule `COc1cc(-c2cnc3cc(OC[C@H]4CCCCN4C)ccn23)cc(OC(F)F)c1C(=O)NC1CC1` [compound 111, N-cyclopropyl-2-(difluoromethoxy)-6-methoxy-4-[7-[[(2R)-1-methyl-2-piperidyl]methoxy]imidazo[1,2-a]pyridin-3-yl]benzamide], the EC50 is 100 to 1000 nM.

In the case of `CNCCOc1ccn2c(-c3cc(OC)c(C(=O)NC4CC4)c(OC(F)F)c3)cnc2c1` [compound 117, N-cyclopropyl-2-(difluoromethoxy)-6-methoxy-4-[7-[2-(methylamino)ethoxy]imidazo[1,2-a]pyridin-3-yl]benzamide], the EC50 was in the range of 100 to 1000 nM.

Turning to `COc1cc(-c2cnc3cc(OCCN)ccn23)cc(OC(F)F)c1C(=O)NC1CC1` [compound 118, 4-[7-(2-aminoethoxy)imidazo[1,2-a]pyridin-3-yl]-N-cyclopropyl-2-(difluoromethoxy)-6-methoxy-benzamide], the EC50 lay within 100 to 1000 nM.

`COc1cc(-c2cnc3cc(OCCN4CCCC4)ccn23)cc2c1C(=O)N(CC(F)(F)F)CC2` [compound 123, 8-methoxy-6-[7-(2-pyrrolidin-1-ylethoxy)imidazo[1,2-a]pyridin-3-yl]-2-(2,2,2-trifluoroethyl)-3,4-dihydroisoquinolin-1-one]: the concentration for a half-maximal effect (EC50) was in the range of 100 to 1000 nM.

As for `COc1cc(-c2cnc3cc(OC[C@H]4CCCN4C)ccn23)cc2c1C(=O)N(CC(F)(F)F)CC2` [compound 124, 8-methoxy-6-[7-[[(2R)-1-methylpyrrolidin-2-yl]methoxy]imidazo[1,2-a]pyridin-3-yl]-2-(2,2,2-trifluoroethyl)-3,4-dihydroisoquinolin-1-one], the concentration giving a half-maximal response (EC50) lay in the range of 100 to 1000 nM.

Consider `COc1cc(-c2cnc3cc(OCC4CCO4)ccn23)cc2c1C(=O)N(CC(F)(F)F)CC2` (stereo not shown) [compound 125, 8-methoxy-6-[7-(oxetan-2-ylmethoxy)imidazo[1,2-a]pyridin-3-yl]-2-(2,2,2-trifluoroethyl)-3,4-dihydroisoquinolin-1-one], for which the 50% effective concentration (EC50) is 100 to 1000 nM.

On to `COc1cc(-c2cnc3cc(OCc4cnco4)ccn23)cc2c1C(=O)N(CC(F)(F)F)CC2` [compound 126, 8-methoxy-6-[7-(oxazol-5-ylmethoxy)imidazo[1,2-a]pyridin-3-yl]-2-(2,2,2-trifluoroethyl)-3,4-dihydroisoquinolin-1-one], for which the EC50 is 100 to 1000 nM.

Turning to `COc1cc(-c2cnc3cc(OCC4CN(C)CCO4)ccn23)cc2c1C(=O)N(CC(F)(F)F)CC2` (stereo not shown) [compound 127, 8-methoxy-6-[7-[(4-methylmorpholin-2-yl)methoxy]imidazo[1,2-a]pyridin-3-yl]-2-(2,2,2-trifluoroethyl)-3,4-dihydroisoquinolin-1-one], the EC50 was 100 to 1000 nM.

Turning to `CCN(CC)CCOc1ccn2c(-c3cc4c(c(OC)c3)C(=O)N(CC(F)(F)F)CC4)cnc2c1` [compound 128, 6-[7-[2-(diethylamino)ethoxy]imidazo[1,2-a]pyridin-3-yl]-8-methoxy-2-(2,2,2-trifluoroethyl)-3,4-dihydroisoquinolin-1-one], the half-maximal effective concentration (EC50) is 100 to 1000 nM.

In the case of `CN(C)CCOc1ccn2c(-c3cc(OC(F)F)c(C(=O)NC4CC4)c(OC(F)F)c3)cnc2c1` [compound 156, N-cyclopropyl-2,6-bis(difluoromethoxy)-4-[7-[2-(dimethylamino)ethoxy]imidazo[1,2-a]pyridin-3-yl]benzamide], the EC50 lay within 100 to 1000 nM.

For the molecule `COc1cc(-c2cnc3cc(OCCN(C)C)ccn23)cc(OC(F)F)c1C(=O)NCC(F)(F)F` [compound 166, 2-(difluoromethoxy)-4-[7-[2-(dimethylamino)ethoxy]imidazo[1,2-a]pyridin-3-yl]-6-methoxy-N-(2,2,2-trifluoroethyl)benzamide], the EC50 was in the range of 100 to 1000 nM.
